# Source: ChEMBL document CHEMBL1130703, “The use of neamine as a molecular template: inactivation of bacterial antibiotic resistance enzyme aminoglycoside 3'-phosphotransferase type IIa” (Bioorg Med Chem Lett, 1998)
# What was measured:
# [1] = Km was determined by Cyanylated APH(3')-IIa method
# [2] = Kinetic constant(Kcat) was determined by native APH(3')-IIa method
# [3] = Michaelis constant was determined by native APH(3')-IIa method
# [4] = Ratio of kinetic catalyst/Km was determined
# [5] = Kinetic catalyst(Kcat) was determined by Cyanylated APH(3')-IIa method
smiles,measurement,setting,value
NC[C@H]1O[C@H](O[C@H]2[C@H](O)[C@@H](O)[C@H](N)C[C@@H]2N)[C@H](N)[C@@H](O)[C@@H]1O,Km,[1],7.9 µM
same,k cat,[2],29 s⁻¹
same,Km,[3],1.2 µM
same,Ratio,[4],2.4e+07 M⁻¹ s⁻¹
same,Ratio,[5],1.3e+06 M⁻¹ s⁻¹
same,k cat,[5],9.93 s⁻¹
